# From paper PMC10396955, “2-Oxabicyclo[2.1.1]hexanes as saturated bioisosteres of the ortho-substituted phenyl ring” (Nature Chemistry, 2023)
# System: Fusarium oxysporum
# Assay: Antifungal activity, agar well diffusion method
# Format: cell-based
# Conditions: Fusarium oxysporum; 0.0039 mg/mL; zones st (static growth); read-out: Diameter of inhibition zone
# Text: (§1) The agar well diffusion method is widely used to evaluate the antimicrobial activity of different substances (S. Magaldi, S. Mata-Essayag, C. Hartung de Capriles, et al. Well diffusion for antifungal susceptibility testing, Int. J. Infect. Dis. 8, 2004 , 39–45; C. Valgas, S. M. De Souza, E. F. A. Smânia, et al. Screening methods to determine antibacterial activity of natural products. Braz. J. Microbiol. 38 , 2007 , 369–380). Similarly to the procedure used in a disk-diffusion method, the agar plate surface is inoculated by spreading a volume of the microbial inoculum over the entire agar surface. Then, a hole with a diameter of 6 to 8 mm is punched aseptically with a sterile cork borer or a tip, and a volume […] of the antimicrobial agent or extract solution at desired concentration is introduced into the well. Then, agar plates are incubated under suitable conditions depending upon the test microorganism. The antimicrobial agent diffuses in the agar medium and inhibits the growth of the microbial strain tested (M. Balouiri, M. Sadiki, S. K. Ibnsouda. Methods for in vitro evaluating […]
# (§2) Agar well diffusion method is a qualitative method used to measure the ability of compounds to inhibit microbial growth. This test is a quick and easy way to measure and compare levels of inhibitory […]
# (§3) Antifungal activity of the synthetic compounds using agar well diffusion The compunds were tested towards plant pathogens Fusarium oxysporum Schltdl. and F. verticillioides (Sacc.) Nirenberg isolated from crops. Antifungal activity of the synthetic compounds was evaluated with using of an agar well diffusion method based on a disk diffusion assay for testing filamentous fungi (CLSI M51-A) [CLSI. Method for Antifungal Disk Diffusion Susceptibility Testing of Nondermatophyte Filamentous Fungi; Approved Guideline.CLSI document M51-A. Wayne, PA:
# (§4) Clinical and Laboratory Standards Institute; 2010. This method is standardized for Altenaria , Aspergillus, Bipolaris , Fusarium , order Mucorales etc.
# (§5) Preparation of synthetic compounds for mycological assay
# (§6) Solutions of fungicides and its analogs were diluted in dimethyl sulfoxide (DMSO) to produce the […]
# (§7) Antifungal well diffusion method
# (§8) The fungal strains were cultured on potato dextrose agar slants (PDA, Eur. Pharm.) and incubated at 25 °C for 5 days. Sterile distilled water was used to cover and resuspend the colonies. Suspension of […]
# (§9) conidia was adjusted to inoculums 5×10^6 conidia/mL. The suspension was further diluted in warm PDA 1:10 to obtain final working inoculums 5×10^5 conidia/mL.
# (§10) Polypropylene cylinders (d, 5 mm) were placed on the surface and wells punched in the medium were used as reservoir of the test substances in different concentrations. 40 µl of solutions containing 0.0039-1.0 mg/mL of a test compound was added into the wells.
# (§11) Each compound was tested in triplicate at different concentrations. Growth control was a well with 40 µl of DMSO, which was used for test components dilution.
# (§12) Plates incubated at 25 °C for 72 h. The test compounds at known concentration into contact with an inoculated medium then exerts a growth-inhibiting effect then a clear zone (the zone of inhibition) appears around the test product. Diameter of a clear zone around the well is measured at the end of the incubation period in millimeters. If the fungal strain is susceptible to the antifungal agent, then a zone of inhibition appears on the agar plate. If it is resistant to the test compound, then no zone is evident.
# (§13) The size of the zone of inhibition is usually related to the level of antifungal activity present in the […]
# (§14) The growth rate of Fusarium oxysporum and F. verticillioides for each well was determined visually and compared with the growth of control.
# (§15) As shown in the table the antifungal activity of the 6 compounds, - Fluxapyroxad, compound 28, compound 29, Boscalid, compound 30, compound 31, - were tested against plant pathogenic fungal […]
# (§16) toward Fusarium oxysporum (Table S5, Figure S16). Inhibition zones of all compounds characterized […]
row,SMILES,zone of inhibition at 3.9 µg/mL
1,O=C(N[C@@H]1[C@@H]2CC[C@@]1(c1ccc(Cl)cc1)C2)c1cccnc1Cl (relative stereo) [Compound 30],16 ± 1.2 mm

# Same assay, conditions: Fusarium oxysporum; 0.0078 mg/mL; zones st (static growth); read-out: Diameter of inhibition zone
row,SMILES,zone of inhibition at […]
1,O=C(N[C@@H]1[C@@H]2CC[C@@]1(c1ccc(Cl)cc1)C2)c1cccnc1Cl (relative stereo) [Compound 30],19 ± 1.2 mm

# Same assay, conditions: Fusarium oxysporum; 0.0156 mg/mL; zones st (static growth); read-out: Diameter of inhibition zone
row,SMILES,zone of inhibition at 15.6 µg/mL
1,O=C(N[C@@H]1[C@@H]2CC[C@@]1(c1ccc(Cl)cc1)C2)c1cccnc1Cl (relative stereo) [Compound 30],20 ± 1.5 mm

# Same assay, conditions: Fusarium oxysporum; 0.03125 mg/mL; zones st (static growth); read-out: Diameter of inhibition zone
row,SMILES,zone of inhibition at 31.25 µg/mL
1,O=C(N[C@@H]1[C@@H]2CC[C@@]1(c1ccc(Cl)cc1)C2)c1cccnc1Cl (relative stereo) [Compound 30],25 ± 0.6 mm

# Same assay, conditions: Fusarium oxysporum; 0.0625 mg/mL; zones st (static growth); read-out: Diameter of inhibition zone
row,SMILES,zone of inhibition at 62.5 µg/mL
1,O=C(N[C@@H]1[C@@H]2CC[C@@]1(c1ccc(Cl)cc1)C2)c1cccnc1Cl (relative stereo) [Compound 30],25 mm

# Same assay, conditions: Fusarium oxysporum; 0.125 mg/mL; zones st (static growth); read-out: Diameter of inhibition zone
row,SMILES,zone of inhibition at 125 µg/mL
1,O=C(N[C@@H]1[C@@H]2CC[C@@]1(c1ccc(Cl)cc1)C2)c1cccnc1Cl (relative stereo) [Compound 30],30 mm

# Same assay, conditions: Fusarium oxysporum; 0.25 mg/mL; zones st (static growth); read-out: Diameter of inhibition zone
row,SMILES,zone of inhibition at 250 µg/mL
1,O=C(N[C@@H]1[C@@H]2CC[C@@]1(c1ccc(Cl)cc1)C2)c1cccnc1Cl (relative stereo) [Compound 30],30 mm

# Same assay, conditions: Fusarium oxysporum; 0.5 mg/mL; zones st (static growth); read-out: Diameter of inhibition zone
row,SMILES,zone of inhibition at 500 µg/mL
1,O=C(N[C@@H]1[C@@H]2CC[C@@]1(c1ccc(Cl)cc1)C2)c1cccnc1Cl (relative stereo) [Compound 30],30 mm

# Same assay, conditions: Fusarium oxysporum; 1 mg/mL; 40 µl per well, 25 °C, 72 h; zones st (static growth); read-out: Diameter of inhibition zone
row,SMILES,zone of inhibition at 1000 µg/mL
1,O=C(N[C@@H]1[C@@H]2CC[C@@]1(c1ccc(Cl)cc1)C2)c1cccnc1Cl (relative stereo) [Compound 30],30 mm

# Same assay, conditions: agar well diffusion; tested 0.0039-1.0 mg/mL
row,SMILES,lowest inhibition concentration
1,O=C(N[C@@H]1[C@@H]2CC[C@@]1(c1ccc(Cl)cc1)C2)c1cccnc1Cl (relative stereo) [Compound 30],< 0.0039 mg/mL

# System: Fusarium verticillioides
# Assay: Antifungal activity, agar well diffusion method
# Format: cell-based
# Conditions: Fusarium verticillioides; 0.0039 mg/mL; 0 = absence of antifungal activity; read-out: Diameter of inhibition zone
# Text: as §1, §2, §3, §4, §5, §6, §7, §8, §9, §10, §11, §12, §13, §14, §15, §16
row,SMILES,zone of inhibition at 3.9 µg/mL
1,O=C(N[C@@H]1[C@@H]2CC[C@@]1(c1ccc(Cl)cc1)C2)c1cccnc1Cl (relative stereo) [Compound 30],11 ± 1.2 mm

# Same assay, conditions: Fusarium verticillioides; 0.0078 mg/mL; 0 = absence of antifungal activity; read-out: Diameter of inhibition zone
row,SMILES,zone of inhibition at […]
1,O=C(N[C@@H]1[C@@H]2CC[C@@]1(c1ccc(Cl)cc1)C2)c1cccnc1Cl (relative stereo) [Compound 30],19 ± 1.2 mm

# Same assay, conditions: Fusarium verticillioides; 0.0156 mg/mL; 0 = absence of antifungal activity; read-out: Diameter of inhibition zone
row,SMILES,zone of inhibition at 15.6 µg/mL
1,O=C(N[C@@H]1[C@@H]2CC[C@@]1(c1ccc(Cl)cc1)C2)c1cccnc1Cl (relative stereo) [Compound 30],25 ± 0.6 mm

# Same assay, conditions: Fusarium verticillioides; 0.03125 mg/mL; 0 = absence of antifungal activity; read-out: Diameter of inhibition zone
row,SMILES,zone of inhibition at 31.25 µg/mL
1,O=C(N[C@@H]1[C@@H]2CC[C@@]1(c1ccc(Cl)cc1)C2)c1cccnc1Cl (relative stereo) [Compound 30],30 ± 0.6 mm

# Same assay, conditions: Fusarium verticillioides; 0.0625 mg/mL; 0 = absence of antifungal activity; read-out: Diameter of inhibition zone
row,SMILES,zone of inhibition at 62.5 µg/mL
1,O=C(N[C@@H]1[C@@H]2CC[C@@]1(c1ccc(Cl)cc1)C2)c1cccnc1Cl (relative stereo) [Compound 30],31 ± 1 mm

# Same assay, conditions: Fusarium verticillioides; 0.125 mg/mL; 0 = absence of antifungal activity; read-out: Diameter of inhibition zone
row,SMILES,zone of inhibition at 125 µg/mL
1,O=C(N[C@@H]1[C@@H]2CC[C@@]1(c1ccc(Cl)cc1)C2)c1cccnc1Cl (relative stereo) [Compound 30],36 ± 1.7 mm

# Same assay, conditions: Fusarium verticillioides; 0.25 mg/mL; 0 = absence of antifungal activity; read-out: Diameter of inhibition zone
row,SMILES,zone of inhibition at 250 µg/mL
1,O=C(N[C@@H]1[C@@H]2CC[C@@]1(c1ccc(Cl)cc1)C2)c1cccnc1Cl (relative stereo) [Compound 30],41 ± 1.2 mm

# Same assay, conditions: Fusarium verticillioides; 0.5 mg/mL; 0 = absence of antifungal activity; read-out: Diameter of inhibition zone
row,SMILES,zone of inhibition at 500 µg/mL
1,O=C(N[C@@H]1[C@@H]2CC[C@@]1(c1ccc(Cl)cc1)C2)c1cccnc1Cl (relative stereo) [Compound 30],46 ± 1.7 mm

# Same assay, conditions: Fusarium verticillioides; 1 mg/mL; 40 µl per well, 25 °C, 72 h; 0 = absence of antifungal activity; read-out: Diameter of inhibition zone
row,SMILES,zone of inhibition at 1000 µg/mL
1,O=C(N[C@@H]1[C@@H]2CC[C@@]1(c1ccc(Cl)cc1)C2)c1cccnc1Cl (relative stereo) [Compound 30],49 ± 1.2 mm

# Same assay, conditions: agar well diffusion; tested 0.0039-1.0 mg/mL
row,SMILES,lowest inhibition concentration
1,O=C(N[C@@H]1[C@@H]2CC[C@@]1(c1ccc(Cl)cc1)C2)c1cccnc1Cl (relative stereo) [Compound 30],< 0.0039 mg/mL

# System: not listed separately
# Assay: Kinetic solubility in phosphate-buffered saline, pH 7.4
# Format: physicochemical
# Conditions: kinetic solubility, PBS pH 7.4
# Experimental: Analysis of Aqueous Solubility […]
# compound (Ondansetron) were assessed for kinetic solubility in phosphate-buffered saline, pH […]
# Phosphate buffered saline, pH 7.4 (Sigma-Aldrich, USA; Cat #P3813) […]
# MultiScreen HTS 96 Well Filter Plates (Millipore, Ireland; Cat # MSGVS2210) […]
# Matrix Multichannel Electronic Pipette 2-125 µL, 5-250 µL, 15-1250 µL (Thermo Scientific, […]
# Vacuum pump (Millipore, USA; Model # XX5500000)
# The measurements were performed using SpectraMax Plus reader in UV-Vis mode. Acquisition and analysis of the data were performed using SoftMax Pro v.5.4 (Molecular Devices) and Excel […]
# Kinetic solubility assay was performed according to the Enamine’s aqueous solubility SOP.
# Briefly, using a 20 mM stock solution of the compound in 100% DMSO dilutions were prepared to a theoretical concentration of 400 μM in duplicates in phosphate-buffered saline pH 7.4 […]
# for two hours and then filtered through HTS filter plates using a vacuum manifold. The filtrates of test compounds were diluted 2-fold with acetonitrile with 2% DMSO before measuring.
# In parallel, compound dilutions in acetonitrile/PBS (1:1) were prepared to theoretical […]
# DMSO to generate calibration curves. Ondansetron was used as reference compound to control proper assay performance. 200 μl of each sample was transferred to 96-well plate and measured in 200-550 nm range with 5 nm step.
# The concentrations of compounds in PBS filtrate are calculated using a dedicated Microsoft Excel calculation script. Proper absorbance wavelengths for calculations are selected for each compound manually based on absorbance maximums (absolute absorbance unit values for the minimum and maximum concentration points within 0 – 3 OD range). Each of the final datasets is additionally visually evaluated by the operator and goodness of fit (R2) is calculated for each calibration curve. The effective range of this assay is approximately 2-400 μM and the […]
row,SMILES,increase of solubility relative to boscalid
1,O=C(N[C@@H]1[C@@H]2CC[C@@]1(c1ccc(Cl)cc1)C2)c1cccnc1Cl (relative stereo) [Compound 30],~ 50%

# Same assay, conditions: phosphate-buffered saline, 25 °C, pH 7.4, aqueous buffer, kinetic from dmso stock, Table S1; incubation 1; read-out: PBS solubility, pH 7.4, Incubation 1
row,SMILES,solubility at 2 h
1,O=C(N[C@@H]1[C@@H]2CC[C@@]1(c1ccc(Cl)cc1)C2)c1cccnc1Cl (relative stereo) [Compound 30],17 µM

# Same assay, conditions: phosphate-buffered saline, 25 °C, pH 7.4, aqueous buffer, kinetic from dmso stock, Table S1; incubation 2; read-out: PBS solubility, pH 7.4, Incubation 2
row,SMILES,solubility at 2 h
1,O=C(N[C@@H]1[C@@H]2CC[C@@]1(c1ccc(Cl)cc1)C2)c1cccnc1Cl (relative stereo) [Compound 30],18 µM

# Same assay, conditions: phosphate-buffered saline, 25 °C, pH 7.4, aqueous buffer, kinetic from dmso stock, Table S1; mean of 2 incubations; 25 °C, 2 h, 2% DMSO; effective range approx. 2-400 μM; read-out: PBS solubility, pH 7.4, Mean
row,SMILES,solubility at 2 h
1,O=C(N[C@@H]1[C@@H]2CC[C@@]1(c1ccc(Cl)cc1)C2)c1cccnc1Cl (relative stereo) [Compound 30],17 µM

# Same assay, conditions: phosphate-buffered saline, 25 °C, pH 7.4, aqueous buffer, kinetic from dmso stock, experimental kinetic solubility in phosphate-buffered saline at pH 7.4; Fig. 3; read-out: Solubility
row,SMILES,solubility at 2 h
1,O=C(N[C@@H]1[C@@H]2CC[C@@]1(c1ccc(Cl)cc1)C2)c1cccnc1Cl (relative stereo) [Compound 30],17 ± 0.3 µM
